Like-named read-outs stand apart in the source and are kept apart here.
Tests used:
JAK3 = molecular target: T1, JAK3 (Homo sapiens, UniProt P52333); assay: KINOMEscan enzyme binding assay (DiscoveRx), JAK3; conditions: read-out: Dissociation Constant JAK3
T1 construct: purchased DiscoveRx (LeadHunter Discover Services, KINOMEscan)
Method: (§1) These assays may be conducted by DiscoveRx (formerly Ambit; San Diego, Calif.). The percentage inhibition produced by incubation with a test compound may be calculated relative to the non-inhibited control.

JAK1 = molecular target: T2, JAK1 (Homo sapiens, UniProt P23458); assay: KINOMEscan enzyme binding assay (DiscoveRx), JAK1; conditions: read-out: Dissociation Constant JAK1
T2 construct: purchased DiscoveRx (LeadHunter Discover Services, KINOMEscan)
Method: as §1

[1] = Systemic pharmacokinetics and total colon tissue distribution after single oral administration in mice; type: in vivo, male C57BL/6 mice; conditions: for Kp: total colon tissue / plasma, po, 10 mg/kg
Method: Studies were conducted by Sai Life Sciences (Hinjewadi, Pune, India) to investigate the systemic pharmacokinetics and total colon tissue distribution of compounds of the invention following a single oral administration in male C57BL/6 mice.
A group of twenty four male mice were administered with a solution of test compound formulated at a dose of 10 mg/10 mL/kg in aqueous hydroxypropyl-β-cyclodextrin (20% w/v in water). Blood samples (approximately 60 μL) were collected from retro-orbital plexus of each mouse under light isoflurane anaesthesia such that the samples were obtained at 0.5, 1, 2, 4, 6, 8, 12 and 24 hr. The blood samples were collected from a set of three mice at each time point in a labeled micro centrifuge tube containing K2EDTA as anticoagulant. Plasma samples were separated by centrifugation at 4000 rpm for 10 min and stored below −70° C. until bioanalysis. After collection of blood sample, animals were humanely euthanized by carbon dioxide asphyxiation to collect total colon tissues. The colons were flushed with cold PBS (pH7.4) to remove contents. The total colon tissues were homogenized with cold PBS (pH7.4) of twice the weight of colon tissue and stored below −70° C. Total volume was three times the total colon tissue weights. All samples were processed for analysis by protein precipitation using acetonitrile and analyzed with a fit-for-purpose LC-MS/MS method. Pharmacokinetic parameters were calculated using the non-compartmental analysis tool of Phoenix WinNonlin® (Version 6.3).

[2] = male, C57BL/6, mouse, oral 10 mg/kg, plasma, read-out: Mean plasma concentration
[3] = male, C57BL/6, mouse, total colon tissue, oral 10 mg/kg, total colon, read-out: Total colon level

T1 sequence (P52333 813-1124 limits assumed): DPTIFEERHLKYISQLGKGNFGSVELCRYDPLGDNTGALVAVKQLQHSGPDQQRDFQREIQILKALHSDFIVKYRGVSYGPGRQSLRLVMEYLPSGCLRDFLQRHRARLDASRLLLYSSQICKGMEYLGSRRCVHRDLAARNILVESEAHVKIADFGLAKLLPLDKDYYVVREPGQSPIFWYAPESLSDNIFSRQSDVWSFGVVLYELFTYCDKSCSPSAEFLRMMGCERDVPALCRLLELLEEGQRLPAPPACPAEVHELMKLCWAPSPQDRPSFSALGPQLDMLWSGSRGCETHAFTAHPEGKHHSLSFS
T2 sequence (P23458 866-1154 limits assumed): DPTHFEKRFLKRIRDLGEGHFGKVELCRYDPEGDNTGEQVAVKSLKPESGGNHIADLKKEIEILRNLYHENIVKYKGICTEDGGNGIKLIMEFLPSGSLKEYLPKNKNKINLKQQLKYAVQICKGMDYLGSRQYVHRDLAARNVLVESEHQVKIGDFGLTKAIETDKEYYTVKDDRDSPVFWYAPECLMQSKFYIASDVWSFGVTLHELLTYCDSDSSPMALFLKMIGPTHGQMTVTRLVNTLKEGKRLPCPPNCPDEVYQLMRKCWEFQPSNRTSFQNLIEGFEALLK

Kd (JAK3): 0.092 nM | Kd (JAK1): 1 nM | concentration at 0.5 h [1, 2]: 2.4 ng/mL | concentration at 1 h [1, 2]: 2.6 ng/mL | concentration at 2 h [1, 2]: 1.9 ng/mL | concentration at 4 h [1, 2]: 1.1 ng/mL | concentration at 6 h [1, 2]: 3.4 ng/mL | concentration at 8 h [1, 2]: 4.8 ng/mL | concentration at 12 h [1, 2]: 1.2 ng/mL | concentration at 24 h [1, 2]: 0 ng/mL | AUC(0-t) ([1]; male, C57BL/6, mouse, oral 10 mg/kg, plasma, read-out: AUC0-24 h P (plasma)): 20 ng·h/mL | Cmax ([1]; male, C57BL/6, mouse, oral 10 mg/kg, plasma, read-out: Cmax P (plasma)): 4.8 ng/mL | Kp ([1]; male, C57BL/6, mouse, read-out: AUC0-24 h ratio (total colon to plasma)): 4850 | Kp ([1]; male, C57BL/6, mouse, read-out: Cmax ratio (total colon to plasma)): 3170 | concentration at 0.5 h [1, 3]: 431 ng/g | concentration at 1 h [1, 3]: 1160 ng/g | concentration at 2 h [1, 3]: 5450 ng/g | concentration at 4 h [1, 3]: 7230 ng/g | concentration at 6 h [1, 3]: 4820 ng/g | concentration at 8 h [1, 3]: 15200 ng/g | concentration at 12 h [1, 3]: 2220 ng/g | concentration at 24 h [1, 3]: 44.8 ng/g | Cmax ([1]; male, C57BL/6, mouse, total colon tissue, oral 10 mg/kg, total colon, read-out: Cmax C (total colon)): 15200 ng/g | Systemic plasma exposure following oral administration ([1]; oral 10 mg/kg, plasma, in words): very low | AUC0-24 h C (total colon) ([1]; oral 10 mg/kg, total colon): 97,062 h · ng/g | Colonic concentrations following oral administration ([1]; oral 10 mg/kg, total colon, in words): substantial colonic concentrations
SMILES: CCc1cc(O)c(F)cc1-c1ccc2c(-c3nc4c([nH]3)CCN(C(=O)c3cnc(N(C)CCN5CCCC5=O)cn3)C4)n[nH]c2c1 [Example 2(k), 1-(2-((5-(2-(6-(2-ethyl-5-fluoro-4-hydroxyphenyl)-1H-indazol-3-yl)-4,5,6,7-tetrahydro-1H-imidazo[4,5-c]pyridine-5-carbonyl)pyrazin-2-yl)(methyl)amino)ethyl)pyrrolidin-2-one]
